From US20230089247A1, “NOVEL COMPOUNDS SUITABLE FOR THE TREATMENT OF DYSLIPIDEMIA” (ZYDUS LIFESCIENCES LIMITED, priority 2019, published 2023)

Molecular target: PCSK9 (Homo sapiens, UniProt Q8NBP7)
Assay: BODIPY-LDL uptake assay in HepG2 cells
Format: cell-based
Conditions: 5 μg/ml PCSK9, BODIPY-LDL
Protocol: BODIPY-LDL Uptake Assay in HepG2 Cells.
An established assay for PCSK9 inhibition features uptake of fluorescently labeled LDL nanoparticles (BODIPY-LDL) by hepatocytes and uptake of the BODIPY-containing particles is maximized in the absence of PCSK9.
In the LDL uptake assay, HepG2 cells were seeded at a density of 6×10^4 cells/well in a 96-well plate. After 24 h, the test compounds at various concentrations were pre-incubated with 5 μg/ml PCSK9 in 0.2% DMSO for 60 min prior to the addition on to the cells. After 16 h the medium was removed and 1 μg/ml BODIPY-LDL (Invitrogen) in serum free media was added and incubated for 5 h. Then the cells were washed twice with 0.25% BSA in PBS. Then the fluorescence of the cells in PBS was measured using TECAN multimode reader (Excitation: 485 nm and Emission: 520 nm). The readings were taken in triplicate and the final values were normalized with the protein concentration from respective wells. The wells without test compound containing external PCSK9 is considered as zero uptake and the one without PCSK9 was considered as 100% uptake. The percentage increase in LDL uptake for the test compounds were calculated using these values.

Sequence of PCSK9 (Q8NBP7 153-692): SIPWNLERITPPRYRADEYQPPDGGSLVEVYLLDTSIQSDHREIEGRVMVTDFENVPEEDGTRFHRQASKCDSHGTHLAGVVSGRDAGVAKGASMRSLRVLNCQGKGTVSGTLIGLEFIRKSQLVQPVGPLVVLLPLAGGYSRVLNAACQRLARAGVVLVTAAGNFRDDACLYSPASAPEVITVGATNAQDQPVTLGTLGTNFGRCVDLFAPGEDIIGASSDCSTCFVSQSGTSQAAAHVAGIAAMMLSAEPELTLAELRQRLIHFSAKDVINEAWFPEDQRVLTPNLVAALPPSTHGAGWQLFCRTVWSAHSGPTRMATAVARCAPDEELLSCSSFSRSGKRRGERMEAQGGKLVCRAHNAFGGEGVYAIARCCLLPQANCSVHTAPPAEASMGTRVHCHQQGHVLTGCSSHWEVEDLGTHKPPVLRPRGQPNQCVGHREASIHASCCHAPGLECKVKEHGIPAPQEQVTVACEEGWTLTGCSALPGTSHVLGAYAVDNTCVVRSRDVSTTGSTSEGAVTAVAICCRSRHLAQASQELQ

COc1ccc(C2CCN(C(=O)c3ccc(C4(O)COC4)cc3)CC2)cc1 [Example 27, (4-(3-hydroxyoxetan-3-yl)phenyl)(4-(4-methoxyphenyl)piperidin-1-yl)methanone]
% increase in LDL Uptake (1 μM test compound): 14% | % increase in LDL Uptake (10 μM test compound): 21% | % increase in LDL Uptake (30 μM test compound): 38%

COc1ccc(C2CCN(C(=O)c3ccc(C4(O)COC4)cc3)CC2)cc1F [Example 28, (4-(3-fluoro-4-methoxyphenyl)piperidin-1-yl)(4-(3-hydroxyoxetan-3-yl)phenyl)methanone]
% increase in LDL Uptake (1 μM test compound): 0% | % increase in LDL Uptake (10 μM test compound): 8% | % increase in LDL Uptake (30 μM test compound): 39%

Cc1ccc(C2CCN(C(=O)c3ccc(C4(O)COC4)cc3)CC2)cc1Cl [Example 29, (4-(3-chloro-4-methylphenyl)piperidin-1-yl)(4-(3-hydroxyoxetan-3-yl)phenyl)methanone]
% increase in LDL Uptake (1 μM test compound): 0% | % increase in LDL Uptake (10 μM test compound): 17% | % increase in LDL Uptake (30 μM test compound): 49%

O=C(c1ccc(C2(O)COC2)cc1)N1CCC(c2ccc(C(F)(F)F)c(Cl)c2)CC1 [Example 32, (4-(3-chloro-4-(trifluoromethyl)phenyl)piperidin-1-yl)(4-(3-hydroxyoxetan-3-yl)phenyl)methanone]
% increase in LDL Uptake (1 μM test compound): 12% | % increase in LDL Uptake (10 μM test compound): 30% | % increase in LDL Uptake (30 μM test compound): 33%

O=C(c1ccc(C2(O)COC2)cc1)N1CCC(c2ccccc2C(F)(F)F)CC1 [Example 33, (4-(3-hydroxyoxetan-3-yl)phenyl)(4-(2-(trifluoromethyl)phenyl)piperidin-1-yl)methanone]
% increase in LDL Uptake (1 μM test compound): 59% | % increase in LDL Uptake (10 μM test compound): 73% | % increase in LDL Uptake (30 μM test compound): 69%

CC(=O)OC1(c2ccc(C(=O)N3CCC(c4ccc(C(F)(F)F)cc4)CC3)cc2)COC1 [Example 36, 3-(4-(4-(4-(trifluoromethyl)phenyl)piperidine-1-carbonyl)phenyl) oxetan-3-yl acetate]
% increase in LDL Uptake (1 μM test compound): 0% | % increase in LDL Uptake (10 μM test compound): 9% | % increase in LDL Uptake (30 μM test compound): 17%

COC1(c2ccc(C(=O)N3CCC(c4cccc(C(F)(F)F)c4)CC3)cc2)COC1 [Example 37, (4-(3-methoxyoxetan-3-yl)phenyl)(4-(3-(trifluoromethyl)phenyl)piperidin-1-yl)methanone]
% increase in LDL Uptake (1 μM test compound): 31% | % increase in LDL Uptake (10 μM test compound): 65% | % increase in LDL Uptake (30 μM test compound): 36%

COC1(c2ccc(C(=O)N3CCC(c4ccc(C(F)(F)F)c(F)c4)CC3)cc2)COC1 [Example 38, (4-(3-fluoro-4-(trifluoromethyl)phenyl)piperidin-1-yl)(4-(3-methoxyoxetan-3-yl)phenyl)methanone]
% increase in LDL Uptake (1 μM test compound): 43% | % increase in LDL Uptake (10 μM test compound): 51% | % increase in LDL Uptake (30 μM test compound): 25%

CCOC1(c2ccc(C(=O)N3CCC(c4ccc(C(F)(F)F)c(F)c4)CC3)cc2)COC1 [Example 42, (4-(3-ethoxyoxetan-3-yl)phenyl)(4-(3-fluoro-4-(trifluoromethyl)phenyl)piperidin-1-yl)methanone]
% increase in LDL Uptake (1 μM test compound): 20% | % increase in LDL Uptake (10 μM test compound): 25% | % increase in LDL Uptake (30 μM test compound): 4%

CC(C)OC1(c2ccc(C(=O)N3CCC(c4ccc(C(F)(F)F)cc4)CC3)cc2)COC1 [Example 44, (4-(3-isopropoxyoxetan-3-yl)phenyl)(4-(4-(trifluoromethyl)phenyl)piperidin-1-yl)methanone]
% increase in LDL Uptake (1 μM test compound): 31% | % increase in LDL Uptake (10 μM test compound): 56% | % increase in LDL Uptake (30 μM test compound): 77%

CC(C)COC1(c2ccc(C(=O)N3CCC(c4ccc(C(F)(F)F)cc4)CC3)cc2)COC1 [Example 45, (4-(3-isobutoxyoxetan-3-yl)phenyl)(4-(4-(trifluoromethyl)phenyl)piperidin-1-yl)methanone]
% increase in LDL Uptake (1 μM test compound): 19% | % increase in LDL Uptake (10 μM test compound): 9% | % increase in LDL Uptake (30 μM test compound): 4%

O=C(c1ccc(C2(OCC3CC3)COC2)cc1)N1CCC(c2ccc(C(F)(F)F)cc2)CC1 [Example 46, (4-(3-(cyclopropylmethoxy)oxetan-3-yl)phenyl)(4-(4-(trifluoromethyl)phenyl)piperidin-1-yl)methanone]
% increase in LDL Uptake (1 μM test compound): 28% | % increase in LDL Uptake (10 μM test compound): 47% | % increase in LDL Uptake (30 μM test compound): 34%

O=C(c1cccc(C2(O)COC2)c1)N1CCCC(c2ccc(C(F)(F)F)cc2)C1 (stereo not drawn) [Example 48, (3-(3-hydroxyoxetan-3-yl)phenyl)(3-(4-(trifluoromethyl)phenyl)piperidin-1-yl)methanone]
% increase in LDL Uptake (1 μM test compound): 0% | % increase in LDL Uptake (10 μM test compound): 142% | % increase in LDL Uptake (30 μM test compound): 234%

O=C(c1cncc(C2(O)COC2)c1)N1CCC(c2ccc(C(F)(F)F)cc2)CC1 [Example 49, (5-(3-hydroxyoxetan-3-yl)pyridin-3-yl)(4-(4-(trifluoromethyl)phenyl)piperidin-1-yl)methanone]
% increase in LDL Uptake (1 μM test compound): 11% | % increase in LDL Uptake (10 μM test compound): 45% | % increase in LDL Uptake (30 μM test compound): 74%

COC1(c2cccc(C(=O)N3CCCC(c4ccc(C(F)(F)F)cc4)C3)c2)COC1 (stereo not drawn) [Example 51, (3-(3-methoxyoxetan-3-yl)phenyl)(3-(4-(trifluoromethyl)phenyl)piperidin-1-yl)methanone]
% increase in LDL Uptake (1 μM test compound): 11% | % increase in LDL Uptake (10 μM test compound): 79% | % increase in LDL Uptake (30 μM test compound): 131%

O=C(c1cccc(C2(O)COC2)c1)N1CC2CN(c3ccc(C(F)(F)F)cc3)CC2C1 (stereo not drawn) [Example 55, (3-(3-hydroxyoxetan-3-yl)phenyl)(5-(4-(trifluoromethyl)phenyl)hexahydropyrrolo[3,4-c]pyrrol-2(1H)-yl)methanone]
% increase in LDL Uptake (1 μM test compound): 82% | % increase in LDL Uptake (10 μM test compound): 320% | % increase in LDL Uptake (30 μM test compound): 287%

[2H]C([2H])([2H])OC1(c2cccc(C(=O)N3CCC(c4ccc(C(F)F)cc4)CC3)c2)COC1 [Example 59, (4-(4-(difluoromethyl)phenyl)piperidin-1-yl)(3-(3-(methoxy-d3)oxetan-3-yl)phenyl) methanone]
% increase in LDL Uptake (1 μM test compound): 0% | % increase in LDL Uptake (10 μM test compound): 0% | % increase in LDL Uptake (30 μM test compound): 37%

COC1(c2ccc(NC(=O)C3CCN(c4ccc(C(F)(F)F)cc4)CC3)cc2)COC1 [Example 60, N-(4-(3-methoxyoxetan-3-yl)phenyl)-1-(4-(trifluoromethyl)phenyl) piperidine-4-carboxamide]
% increase in LDL Uptake (1 μM test compound): 50% | % increase in LDL Uptake (10 μM test compound): 7% | % increase in LDL Uptake (30 μM test compound): 0%

O=C(c1ccc(C2(O)CS(=O)(=O)C2)cc1)N1CC2CN(c3ccc(C(F)(F)F)cc3)CC2C1 (stereo not drawn) [Example 61, (4-(3-hydroxy-1,1-dioxidothietan-3-yl)phenyl)(5-(4-(trifluoromethyl)phenyl)hexahydropyrrolo[3,4-c]pyrrol-2(1H)-yl)methanone]
% increase in LDL Uptake (1 μM test compound): 13% | % increase in LDL Uptake (10 μM test compound): 32% | % increase in LDL Uptake (30 μM test compound): 37%

O=C(c1ccc(C2(O)CS(=O)(=O)C2)cc1)N1CCC(c2ccc(C(F)(F)F)cc2)CC1 [Example 62, (4-(3-hydroxy-1,1-dioxidothietan-3-yl)phenyl)(4-(4-(trifluoromethyl)phenyl)piperidin-1-yl)methanone]
% increase in LDL Uptake (1 μM test compound): 18% | % increase in LDL Uptake (10 μM test compound): 10% | % increase in LDL Uptake (30 μM test compound): 17%

O=C(c1ccc(C2(O)COC2)cc1)N1CCC(c2ccc(O)cc2)CC1 [Example 63, (4-(3-hydroxyoxetan-3-yl)phenyl)(4-(4-hydroxyphenyl)piperidin-1-yl)methanone]
% increase in LDL Uptake (1 μM test compound): 12% | % increase in LDL Uptake (10 μM test compound): 18% | % increase in LDL Uptake (30 μM test compound): 0%

O=C(c1ccc(C2(O)COC2)cc1)N1CCC(c2ccccc2)CC1 [Example 64, (4-(3-hydroxyoxetan-3-yl)phenyl)(4-phenylpiperidin-1-yl) methanone]
% increase in LDL Uptake (1 μM test compound): 0% | % increase in LDL Uptake (10 μM test compound): 13% | % increase in LDL Uptake (30 μM test compound): 6%

COC1(c2cccc(C(=O)N3CCC(c4ccc(C(F)F)cc4)CC3)c2)COC1 [Example 65, (4-(4-(difluoromethyl)phenyl)piperidin-1-yl)(3-(3-methoxyoxetan-3-yl)phenyl)methanone]
% increase in LDL Uptake (1 μM test compound): 0% | % increase in LDL Uptake (10 μM test compound): 9% | % increase in LDL Uptake (30 μM test compound): 66%

COc1cc(C2CN(c3ccc(C(F)(F)F)cc3)CCN2C(=O)c2ccc(C3(O)COC3)cc2)ccn1 (stereo not drawn) [Example 67, (4-(3-hydroxyoxetan-3-yl)phenyl)(2-(2-methoxypyridin-4-yl)-4-(4-(trifluoromethyl)phenyl)piperazin-1-yl)methanone]
% increase in LDL Uptake (1 μM test compound): 26% | % increase in LDL Uptake (10 μM test compound): 27% | % increase in LDL Uptake (30 μM test compound): 11%

COC1(c2ccc(C(=O)N3CCC(c4ccc(C(F)F)cc4)CC3)cc2)COC1 [Example 68, (4-(4-(difluoromethyl)phenyl)piperidin-1-yl)(4-(3-methoxyoxetan-3-yl)phenyl)methanone]
% increase in LDL Uptake (1 μM test compound): 0% | % increase in LDL Uptake (10 μM test compound): 2% | % increase in LDL Uptake (30 μM test compound): 51%

O=C(c1ccc(C2(O)COC2)cc1)N1CCC(c2ccc(C(F)F)cc2)CC1 [Example 69, (4-(4-(difluoromethyl)phenyl)piperidin-1-yl)(4-(3-hydroxyoxetan-3-yl)phenyl)methanone]
% increase in LDL Uptake (1 μM test compound): 0% | % increase in LDL Uptake (10 μM test compound): 0% | % increase in LDL Uptake (30 μM test compound): 76%

CC#CCOC1(c2ccc(C(=O)N3CCC(c4ccc(C(F)(F)F)cc4)CC3)cc2)COC1 [Example 70, (4-(3-(but-2-yn-1-yloxy)oxetan-3-yl)phenyl)(4-(4-(trifluoromethyl)phenyl)piperidin-1-yl)methanone]
% increase in LDL Uptake (1 μM test compound): 0% | % increase in LDL Uptake (10 μM test compound): 26% | % increase in LDL Uptake (30 μM test compound): 14%
